Earlier results in patent publication US9873913B2, “Mutation testing” (Roche Molecular Systems, Inc., priority 2013, dated 2018).

Test system: non-small cell lung cancer (NSCLC) patients
Settings: relatively small subset of NSCLC patients after chemotherapy

Compound	effect on survival (in words)
C#Cc1cccc(Nc2ncnc3cc(OCCOC)c(OCCOC)cc23)c1 [erlotinib]	prolong survival
COc1cc2ncnc(Nc3ccc(F)c(Cl)c3)c2cc1OCCCN1CCOCC1 [gefitinib]	prolong survival
